Counter-ions that a name gives are not always drawn. Like-named read-outs stand apart in the source and are kept apart here.
Test system: PRKACA-PRKAR2A interaction (SmBiT-PRKACA / LgBiT-PRKAR2A), protein kinase A
Design: NanoLuc complementation counter-screen in cell extract, PRKACA with PRKAR2A, loss of luminescence, detects NanoLuc interference
Settings: counter-screen for NanoLuc interference, 0.5 h, 20 µM, inhibitor

SMILES | Inh (PKA) [%] | Inh (PKA) (Inh (PKA)) [%]
CNC(=O)c1ccc(N2C(=S)N(c3cnc(C#N)c(C(F)(F)F)c3)C(=O)C23CCC3)cc1F [UM0142016:01, ARN-509] | 2.375 | 
C=CC(=O)Nc1ccc2ncnc(Nc3ccc(OCc4cccc(F)c4)c(Cl)c3)c2c1 [UM0142018:01, AST-1306] | 12.53 | 
CNC(=O)c1cccc(-c2ccc3c(N4CCOC[C@@H]4C)nc(N4CCOC[C@@H]4C)nc3n2)c1 [UM0142021:01, AZD2014] | 7.565 | 
CNC(=O)CN1CCC(Oc2cc3c(Nc4cccc(Cl)c4F)ncnc3cc2OC)CC1 [UM0142022:01, AZD8931 (Sapitinib)] | 6.017 | 
CCCCCCOC(=O)NC(=N)c1ccc(NCc2nc3cc(C(=O)N(CCC(=O)OCC)c4ccccn4)ccc3n2C)cc1 [UM0142023:01, BIBR-1048] |  | 4.293
CCCCOc1c(C(=O)c2c(F)cc(C)cc2F)c[nH]c2nncc1-2 [UM0142024:01, BMS265246] | 6.004 | 
O=c1[nH]c2ccc(Cl)cc2c(N[C@@H]2CN3CCC2CC3)c1-c1nc2ccccc2[nH]1 [UM0142025:01, CHIR-124] | 30.1 | 
Nc1nc(NCCNc2ncc(-n3ccnc3)c(-c3ccc(Cl)cc3Cl)n2)ccc1[N+](=O)[O-] [UM0142026:01, CHIR-98014] | 80.31 | 
CN(C)C(=O)[C@H](O)[C@H](Cc1ccccc1)NC(=O)c1cc2cc(Cl)ccc2[nH]1 [UM0142029:01, CP-91149] | 53.3 | 
O=c1[nH]cnc2c1ncn2[C@H]1CC[C@@H](CO)O1 [UM0142031:01, Didanosine] | -1.093 | 
CCc1cnn2c(NCc3ccc[n+]([O-])c3)cc(N3CCCC[C@H]3CCO)nc12 [UM0142032:01, Dinaciclib (SCH727965)] | 1.224 | 
CN(CCOc1ccc(NS(C)(=O)=O)cc1)CCc1ccc(NS(C)(=O)=O)cc1 [UM0142033:01, Dofetilide] | -0.1542 | 
CN1CCN(c2ccc3nc(-c4c(N)c5c(F)cccc5[nH]c4=O)[nH]c3c2)CC1 [UM0142034:01, Dovitinib Dilactic acid] |  | 16.9
CCN1CC(CCN2CCOCC2)C(c2ccccc2)(c2ccccc2)C1=O (stereo not shown) [UM0142035:01, Doxapram HCl] | 1.453 | 
C[C@H]1c2cccc(O)c2C(=O)C2=C(O)[C@]3(O)C(=O)C(C(N)=O)=C(O)[C@@H](N(C)C)[C@@H]3[C@@H](O)[C@@H]21 [UM0142036:01, Doxycycline HCl] |  | 1.035
Nc1nc(=O)n([C@@H]2CS[C@H](CO)O2)cc1F [UM0142037:01, Emtricitabine] | -0.284 | 
C[C@]12CC[C@@H]3c4ccc(O)cc4CC[C@H]3[C@@H]1CCC2=O [UM0142038:01, Estrone] | 7.468 | 
O=C1[C@H](CC[C@H](O)c2ccc(F)cc2)[C@@H](c2ccc(O)cc2)N1c1ccc(F)cc1 [UM0142039:01, Ezetimibe] | 29.66 | 
CC(C(=O)O)c1ccc(-c2ccccc2)c(F)c1 (stereo not shown) [UM0142040:01, Flurbiprofen] | 28.61 | 
Nc1ccn([C@@H]2O[C@H](CO)[C@@H](O)C2(F)F)c(=O)n1 [UM0142041:01, Gemcitabine] |  | -0.03613

SMILES | Inh (PKA) [%] | Inh (PKA) (Inh (PKA)) [%]
CC(C)c1noc(N2CCC(COc3ccc(-c4ccc(S(C)(=O)=O)cc4)nc3)CC2)n1 [UM0142042:01, GSK1292263] | 2.417 | 
CNC(=O)c1c(F)cccc1Nc1nc(Nc2cc3c(ccn3C(=O)CN(C)C)cc2OC)nc2[nH]ccc12 [UM0142043:01, GSK1838705A] | 3.955 | 
O=C(O)Cc1cccc(OCCCN(Cc2cccc(C(F)(F)F)c2Cl)CC(c2ccccc2)c2ccccc2)c1 [UM0142045:01, GW3965 HCl] | 20.75 | 
CC(C)Cc1ccc(C(C)C(=O)O)cc1 (stereo not shown) [UM0142046:01, Ibuprofen] | 3.005 | 
CCOC(=O)[C@H](CCc1ccccc1)N[C@@H](C)C(=O)N1C(=O)N(C)C[C@H]1C(=O)O [UM0142047:01, Imidapril HCl] | 2.302 | 
CNC(=O)c1ccc(-c2cnc3ncc(Cc4ccc5ncccc5c4)n3n2)cc1F [UM0142048:01, INCB28060] | 6.016 | 
CC(O)c1cc(C(=O)N[C@@H](C)Cn2ccc(-c3ccc(C#N)c(Cl)c3)n2)n[nH]1 (stereo partly shown) [UM0142049:01, ODM-201] | 2.703 | 
COC(=O)C1=C(C)NC(C)=C(C(=O)OC(C)C)C1c1cccc2nonc12 (stereo not shown) [UM0142050:01, Isradipine (Dynacirc)] | 94.06 | 
COC(=O)C1=C(C#N)NC(C)=C(C(=O)OC(C)C)C1c1cccc([N+](=O)[O-])c1 (stereo not shown) [UM0142051:01, Nilvadipine] | 88.81 | 
Nc1ccn([C@@H]2CS[C@H](CO)O2)c(=O)n1 [UM0142052:01, Lamivudine] | -0.4847 | 
CCN(C(=O)c1c(O)c2c(Cl)cccc2n(C)c1=O)c1ccccc1 [UM0142053:01, Laquinimod (ABR-215062)] | 1.122 | 
c1ccc(-c2nn3c(c2-c2ccnc4cc(OCCN5CCOCC5)ccc24)CCC3)nc1 [UM0142054:01, LY2109761] | -0.08675 | 
NC1=N[C@@]2(c3cc(NC(=O)c4ccc(F)cn4)ccc3F)COC[C@H]2CS1 [UM0142055:01, LY2886721] | 5.898 | 
Nc1nc(CC(=O)Nc2ccc(CCNC[C@H](O)c3ccccc3)cc2)cs1 [UM0142057:01, Mirabegron (YM178)] | 3.158 | 
CN(C[C@@H]1COCCO1)S(=O)(=O)Nc1ccc2ccc3ncc(-c4cnn(C)c4)cc3c(=O)c2c1 [UM0142058:01, MK-2461] | 13.67 | 
Cn1cc(-c2cnn3c(N)c(Br)c([C@@H]4CCCNC4)nc23)cn1 [UM0142059:01, MK-8776 (SCH-900776)] | 4.838 | 
Cc1ccnc2c1NC(=O)c1cccnc1N2C1CC1 [UM0142060:01, Nevirapine] | 3.121 | 
COCCOC(=O)C1=C(C)NC(C)=C(C(=O)OC(C)C)C1c1cccc([N+](=O)[O-])c1 (stereo not shown) [UM0142061:01, Nimodipine] | 89.11 | 
COc1ccc(-c2ccc3ncc4c(c3c2)n(-c2ccc(N3CCNCC3)c(C(F)(F)F)c2)c(=O)n4C)cn1 [UM0142062:01, NVP-BGT226] | 19.52 | 
Cn1cc(-c2ccc3ncc(Cc4ccc5ncccc5c4)n3n2)cn1 [UM0142063:01, NVP-BVU972] | 13.19 | 

SMILES | Inh (PKA) [%] | Inh (PKA) (Inh (PKA)) [%]
COc1ccc(-c2cc3c(C)nc(N)nc3n([C@H]3CC[C@H](OCCO)CC3)c2=O)cn1 [UM0142064:01, PF-04691502] | 7.804 | 
CNC(=O)c1nn(C)c2c1C(C)(C)Cc1cnc(Nc3ccc(N4CCN(C)CC4)cc3)nc1-2 [UM0142065:01, PHA-848125] | 8.149 | 
O=C(O)C[C@H](O)C[C@H](O)/C=C/c1c(C2CC2)nc2ccccc2c1-c1ccc(F)cc1 [UM0142066:01, Pitavastatin Calcium] | 41.78 | 
CCn1nnc2c(N3CCOCC3)nc(-c3ccc(NC(=O)Nc4ccc(C(=O)N5CCN(C)CC5)cc4)cc3)nc21 [UM0142067:01, PKI-402] | 0.4885 | 
CO[C@H]1/C=C/O[C@@]2(C)Oc3c(C)c(O)c4c(O)c(c5c(nc6cc(C)ccn65)c4c3C2=O)NC(=O)/C(C)=C\C=C\[C@H](C)[C@H](O)[C@@H](C)[C@@H](O)[C@@H](C)[C@H](OC(C)=O)[C@@H]1C [UM0142068:01, Rifaximin (Xifaxan)] | 35.34 | 
CCN(C)C(=O)Oc1cccc([C@H](C)N(C)C)c1 [UM0142069:01, Rivastigmine Tartrate] |  | 1.4
CC(C)c1nc(N(C)S(C)(=O)=O)nc(-c2ccc(F)cc2)c1/C=C/[C@@H](O)C[C@@H](O)CC(=O)O [UM0142070:01, Rosuvastatin Calcium] | 4.68 | 
CN1CCN(c2nc(C3=C(c4c[nH]c5ccccc45)C(=O)NC3=O)c3ccccc3n2)CC1 [UM0142072:01, Sotrastaurin (AEB071)] | 65.03 | 
CC(C)(O)CC(=O)NCCn1ccc2ncnc(Nc3ccc(Oc4cccc(C(F)(F)F)c4)c(Cl)c3)c21 [UM0142073:01, TAK-285] | 28.39 | 
Cc1cn([C@@H]2C[C@@H](O)[C@H](CO)O2)c(=O)[nH]c1=O [UM0142074:01, Telbivudine] | -0.434 | 
COc1cc([C@@H]2c3cc4c(cc3[C@@H](O[C@@H]3O[C@@H]5CO[C@@H](c6cccs6)O[C@H]5[C@H](O)[C@H]3O)[C@H]3COC(=O)[C@H]23)OCO4)cc(OC)c1O [UM0142075:01, Teniposide] | 6.975 | 
CSc1ccc2c(c1)N(CCC1CCCCN1C)c1ccccc1S2 (stereo not shown) [UM0142076:01, Thioridazine HCl] | 11.27 | 
COc1cc(Nc2ncc(F)c(Nc3ccc4c(n3)NC(=O)C(C)(C)O4)n2)cc(OC)c1OC [UM0142079:01, R406] |  | 54.73
CN1CCc2c(c3ccccc3n2Cc2ccc(C(=O)NO)cc2)C1 [UM0142080:01, Tubastatin A HCl] | 2.454 | 
CCCCCCCCc1ccc(CCC(N)(CO)CO)cc1 [UM0142081:01, Fingolimod (FTY720)] | 6.851 | 
CNC(=O)c1cc(COc2nnc(Nc3ccc(Cl)cc3)c3ccoc23)ccn1 [UM0142083:01, Telatinib (BAY 57-9352)] | 10.72 | 
CC(C)n1nc(-c2ccc3oc(N)nc3c2)c2c(N)ncnc21 [UM0142084:01, INK 128 (MLN0128)] | 29.78 | 
O=C(O)c1cccc(-c2noc(-c3ccccc3F)n2)c1 [UM0142085:01, PTC124 (Ataluren)] | 9.195 | 

From publication PMC9995496, “A screen for MeCP2-TBL1 interaction inhibitors using a luminescence-based assay” (Scientific Reports, 2023)
